Assay results reported in patent publication US20160297833A1, “THIENOPYRIMIDINES AS MKNK1 AND MKNK2 INHIBITORS” (BAYER PHARMA AKTIENGESELLSCHAFT, priority 2013, published 2016).

Molecular target: T1, human full-length MKNK1 (Homo sapiens, UniProt Q9BUB5, T385D)
T1 construct: GST (N); purchased Carna Biosciences 02-145; host or cells: insect cells (baculovirus expression system)
Assay: MKNK1 kinase high ATP assay (TR-FRET)
Assay type: biochemical
Conditions: for IC50: Table 1, MKNK1 kinase high ATP assay, 2 mM ATP, read-out: MKNK1 IC50; for Activity-Ratio MKNK1: Table 2, ratio of the IC50-value of an R-enantiomer and its corresponding S-enantiomer
Procedure: MKNK1 Kinase High ATP Assay
MKNK1-inhibitory activity at high ATP of compounds of the present invention after their preincubation with MKNK1 was quantified employing the TR-FRET-based MKNK1 high ATP assay as described in the following paragraphs.
As substrate for the kinase reaction the biotinylated peptide biotin-Ahx-[…] (C-terminus in amide form) was used, which can be purchased e.g. from the company Biosyntan (Berlin-Buch, Germany).
For the assay 50 nL of a 100 fold concentrated solution of the test compound in DMSO was pipetted into a black low volume 384 well microtiter plate (Greiner Bio-One, Frickenhausen, Germany), 2 μL of a solution of MKNK1 in aqueous assay buffer [50 mM HEPES pH 7.5, 5 mM MgCl2, 1.0 mM dithiothreitol, 0.005% (v/v) Nonidet-P40 (Sigma)] was added and the mixture was incubated for 15 min at 22° C. to allow pre-binding of the test compounds to the enzyme before the start of the kinase reaction. Then the kinase reaction was started by the addition of 3 μL of a solution of adenosine-tri-phosphate (ATP, 3.3 mM=>final conc. in the 5 μL assay volume is 2 mM) and substrate (0.1 μM=>final conc. in the 5 μL assay volume is 0.06 μM) in assay buffer and the resulting mixture was incubated for a reaction time of 30 min at 22° C. The concentration of MKNK1 was adjusted depending of the activity of the enzyme lot and was chosen appropriate to have the assay in the linear range, typical concentrations were in the range of 0.003 μg/mL. The reaction was stopped by the addition of 5 μL of a solution of TR-FRET detection reagents (5 nM streptavidine-XL665 [Cisbio Bioassays, Codolet, France] and 1 nM anti-ribosomal protein S6 (pSer236)-antibody from Invitrogen [#44921G] and 1 nM LANCE EU-W1024 labeled ProteinG [Perkin-Elmer, product no. AD0071]) in an aqueous EDTA-solution (100 mM EDTA, 0.1% (w/v) bovine serum albumin in 50 mM HEPES pH 7.5).
The resulting mixture was incubated for 1 h at 22° C. to allow the formation of complex between the phosphorylated biotinylated peptide and the detection reagents. Subsequently the amount of phosphorylated substrate was evaluated by measurement of the resonance energy transfer from the Eu-chelate to the streptavidine-XL. Therefore, the fluorescence emissions at 620 nm and 665 nm after excitation at 350 nm were measured in a TR-FRET reader, e.g. a Rubystar (BMG Labtechnologies, Offenburg, Germany) or a Viewlux (Perkin-Elmer). The ratio of the emissions at 665 nm and at 622 nm was taken as the measure for the amount of phosphorylated substrate.

T1 sequence (Q9BUB5 1-424 isoform Q9BUB5-2 T344D): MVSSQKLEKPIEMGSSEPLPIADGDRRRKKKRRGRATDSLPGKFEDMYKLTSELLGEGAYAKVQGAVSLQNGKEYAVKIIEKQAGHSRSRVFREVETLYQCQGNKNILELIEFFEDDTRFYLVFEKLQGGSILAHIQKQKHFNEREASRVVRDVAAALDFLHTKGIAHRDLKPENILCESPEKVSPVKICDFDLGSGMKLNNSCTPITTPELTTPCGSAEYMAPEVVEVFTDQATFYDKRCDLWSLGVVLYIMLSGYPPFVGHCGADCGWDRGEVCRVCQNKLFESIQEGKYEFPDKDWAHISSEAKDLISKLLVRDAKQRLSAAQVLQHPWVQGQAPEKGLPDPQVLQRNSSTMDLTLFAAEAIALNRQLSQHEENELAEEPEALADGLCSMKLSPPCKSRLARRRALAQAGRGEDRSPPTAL

| IC50 | Activity-Ratio MKNK1 | SMILES |
| --- | --- | --- |
| 0.5 nM |  | COc1cc2[nH]ncc2cc1Nc1ncnc2sc3c(c12)CC[C@H](C(=O)N1CCCC(F)C1)C3 (mixture of isomers) [Example 205, [(3RS)-3-fluoropiperidin-1-yl]{(7S)-4-[(6-methoxy-1H-indazol-5-yl)amino]-5,6,7,8-tetrahydro[1]benzothieno[2,3-d]pyrimidin-7-yl}methanone] |
| 14.3 nM | 8.3 | CN(C)C(=O)[C@H]1CCc2c(sc3ncnc(Nc4ccc5[nH]ncc5c4)c23)C1 [Example 1, (7S)-4-(1H-Indazol-5-ylamino)-N,N-dimethyl-5,6,7,8-tetrahydro[1]benzothieno[2,3-d]pyrimidine-7-carboxamide] |
| 118 nM |  | CN(C)C(=O)[C@@H]1CCc2c(sc3ncnc(Nc4ccc5[nH]ncc5c4)c23)C1 [Example 2, (7R)-4-(1H-Indazol-5-ylamino)-N,N-dimethyl-5,6,7,8-tetrahydro[1]benzothieno[2,3-d]pyrimidine-7-carboxamide] |
| 11 nM |  | O=C([C@H]1CCc2c(sc3ncnc(Nc4ccc5[nH]ncc5c4)c23)C1)N1CCC1 [Example 3, Azetidin-1-yl[(7S)-4-(1H-indazol-5-ylamino)-5,6,7,8-tetrahydro[1]benzothieno[2,3-d]pyrimidin-7-yl]methanone] |
| 3.5 nM |  | CCN(C)C(=O)[C@H]1CCc2c(sc3ncnc(Nc4ccc5[nH]ncc5c4)c23)C1 [Example 4, (7S)—N-Ethyl-4-(1H-indazol-5-ylamino)-N-methyl-5,6,7,8-tetrahydro[1]benzothieno[2,3-d]pyrimidine-7-carboxamide] |
| 18.3 nM |  | CN(CC(F)(F)F)C(=O)[C@H]1CCc2c(sc3ncnc(Nc4ccc5[nH]ncc5c4)c23)C1 [Example 5, (7S)-4-(1H-Indazol-5-ylamino)-N-methyl-N-(2,2,2-trifluoroethyl)-5,6,7,8-tetrahydro[1]benzothieno[2,3-d]pyrimidine-7-carboxamide] |
| 11 nM |  | CN(CCC(F)(F)F)C(=O)[C@H]1CCc2c(sc3ncnc(Nc4ccc5[nH]ncc5c4)c23)C1 [Example 6, (7S)-4-(1H-Indazol-5-ylamino)-N-methyl-N-(3,3,3-trifluoropropyl)-5,6,7,8-tetrahydro[1]benzothieno[2,3-d]pyrimidine-7-carboxamide] |
| 6 nM |  | CC(C)N(C)C(=O)[C@H]1CCc2c(sc3ncnc(Nc4ccc5[nH]ncc5c4)c23)C1 [Example 7, (7S)-4-(1H-Indazol-5-ylamino)-N-methyl-N-(propan-2-yl)-5,6,7,8-tetrahydro[1]benzothieno[2,3-d]pyrimidine-7-carboxamide] |
| 8.3 nM |  | CCN(C(=O)[C@H]1CCc2c(sc3ncnc(Nc4ccc5[nH]ncc5c4)c23)C1)C(C)C [Example 8, (7S)—N-Ethyl-4-(1H-indazol-5-ylamino)-N-(propan-2-yl)-5,6,7,8-tetrahydro[1]benzothieno[2,3-d]pyrimidine-7-carboxamide] |
| 25.6 nM |  | O=C([C@H]1CCc2c(sc3ncnc(Nc4ccc5[nH]ncc5c4)c23)C1)N1CCOCC1 [Example 9, [(7S)-4-(1H-Indazol-5-ylamino)-5,6,7,8-tetrahydro[1]benzothieno[2,3-d]pyrimidin-7-yl](morpholin-4-yl)methanone] |
| 11.1 nM |  | O=C([C@H]1CCc2c(sc3ncnc(Nc4ccc5[nH]ncc5c4)c23)C1)N1C[C@@H]2C[C@H]1CO2 [Example 10, [(7S)-4-(1H-Indazol-5-ylamino)-5,6,7,8-tetrahydro[1]benzothieno[2,3-d]pyrimidin-7-yl][(1S,4S)-2-oxa-5-azabicyclo[2.2.1]hept-5-yl]methanone] |
| 4 nM |  | O=C([C@H]1CCc2c(sc3ncnc(Nc4ccc5[nH]ncc5c4)c23)C1)N1C[C@H]2C[C@@H]1CO2 [Example 11, [(7S)-4-(1H-Indazol-5-ylamino)-5,6,7,8-tetrahydro[I]benzothieno[2,3-d]pyrimidin-7-yl][(1R,4R)-2-oxa-5-azabicyclo[2.2.1]hept-5-yl]methanone] |
| 22.7 nM |  | O=C([C@H]1CCc2c(sc3ncnc(Nc4ccc5[nH]ncc5c4)c23)C1)N1CC2(COC2)C1 [Example 12, [(7S)-4-(1H-Indazol-5-ylamino)-5,6,7,8-tetrahydro[1]benzothieno[2,3-d]pyrimidin-7-yl](2-oxa-6-azaspiro[3.3]hept-6-yl)methanone] |
| 3.2 nM |  | COCCN(C)C(=O)[C@H]1CCc2c(sc3ncnc(Nc4ccc5[nH]ncc5c4)c23)C1 [Example 13, (7S)-4-(1H-Indazol-5-ylamino)-N-(2-methoxyethyl)-N-methyl-5,6,7,8-tetrahydro[1]benzothieno[2,3-d]pyrimidine-7-carboxamide] |
| 5.5 nM | 16.1 | CN1CCN(C(=O)[C@H]2CCc3c(sc4ncnc(Nc5ccc6[nH]ncc6c5)c34)C2)CC1 [Example 14, [(7S)-4-(1H-Indazol-5-ylamino)-5,6,7,8-tetrahydro[I]benzothieno[2,3-d]pyrimidin-7-yl](4-methylpiperazin-1-yl)methanone] |
| 88.5 nM |  | CN1CCN(C(=O)[C@@H]2CCc3c(sc4ncnc(Nc5ccc6[nH]ncc6c5)c34)C2)CC1 [Example 15, [(7R)-4-(1H-Indazol-5-ylamino)-5,6,7,8-tetrahydro[1]benzothieno[2,3-d]pyrimidin-7-yl](4-methylpiperazin-1-yl)methanone] |
| 2.4 nM |  | COCCN(CCOC)C(=O)[C@H]1CCc2c(sc3ncnc(Nc4ccc5[nH]ncc5c4)c23)C1 [Example 16, (7S)-4-(1H-Indazol-5-ylamino)-N,N-bis(2-methoxyethyl)-5,6,7,8-tetrahydro[1]benzothieno[2,3-d]pyrimidine-7-carboxamide] |
| 9.4 nM |  | CC1(O)CN(C(=O)[C@H]2CCc3c(sc4ncnc(Nc5ccc6[nH]ncc6c5)c34)C2)C1 [Example 17, (3-Hydroxy-3-methylazetidin-1-yl)[(7S)-4-(1H-indazol-5-ylamino)-5,6,7,8-tetrahydro[1]benzothieno[2,3-d]pyrimidin-7-yl]methanone] |
| 3.9 nM |  | CN(CC(C)(C)O)C(=O)[C@H]1CCc2c(sc3ncnc(Nc4ccc5[nH]ncc5c4)c23)C1 [Example 18, (7S)—N-(2-Hydroxy-2-methylpropyl)-4-(1H-indazol-5-ylamino)-N-methyl-5,6,7,8-tetrahydro[1]benzothieno[2,3-d]pyrimidine-7-carboxamide] |
| 2.5 nM |  | CCN(CCO)C(=O)[C@H]1CCc2c(sc3ncnc(Nc4ccc5[nH]ncc5c4)c23)C1 [Example 19, (7S)—N-Ethyl-N-(2-hydroxyethyl)-4-(1H-indazol-5-ylamino)-5,6,7,8-tetrahydro[1]benzothieno[2,3-d]pyrimidine-7-carboxamide] |
| 1 nM |  | COc1cc2[nH]ncc2cc1Nc1ncnc2sc3c(c12)CC[C@H](C(=O)N(C)C)C3 [Example 20, (7S)-4-[(6-Methoxy-1H-indazol-5-yl)amino]-N,N-dimethyl-5,6,7,8-tetrahydro[1]benzothieno[2,3-d]pyrimidine-7-carboxamide] |
| 0.4 nM | 53.1 | COc1cc2[nH]ncc2cc1Nc1ncnc2sc3c(c12)CC[C@H](C(=O)N1CCC1)C3 [Example 21, Azetidin-1-yl{(7S)-4-[(6-methoxy-1H-indazol-5-yl)amino]-5,6,7,8-tetrahydro[1]benzothieno[2,3-d]pyrimidin-7-yl}methanone] |
| 21.4 nM |  | COc1cc2[nH]ncc2cc1Nc1ncnc2sc3c(c12)CC[C@@H](C(=O)N1CCC1)C3 [Example 22, Azetidin-1-yl{(7R)-4-[(6-methoxy-1H-indazol-5-yl)amino]-5,6,7,8-tetrahydro[1]benzothieno[2,3-d]pyrimidin-7-yl}methanone] |
| 0.5 nM |  | COc1cc2[nH]ncc2cc1Nc1ncnc2sc3c(c12)CC[C@H](C(=O)N1CCCC1)C3 [Example 23, {(7S)-4-[(6-Methoxy-1H-indazol-5-yl)amino]-5,6,7,8-tetrahydro[1]benzothieno[2,3-d]pyrimidin-7-yl}(pyrrolidin-1-yl)methanone] |
| 0.2 nM | 39.1 | CCN(C)C(=O)[C@H]1CCc2c(sc3ncnc(Nc4cc5cn[nH]c5cc4OC)c23)C1 [Example 24, (7S)—N-Ethyl-4-[(6-methoxy-1H-indazol-5-yl)amino]-N-methyl-5,6,7,8-tetrahydro[1]benzothieno[2,3-d]pyrimidine-7-carboxamide] |
